Reference: patent publication US20130274651A1, “SYSTEM AND METHOD FOR IMPROVING OUTCOME OF CEREBRAL ISCHEMIA” (priority 2012, published 2013)
“Also recorded” adds a separate entry of the source.

Experiments:
[1] = Tolerability of intranasal delivery in humans (normal volunteers); format: in vivo, human; conditions: high concentration
Excerpt: While nitric oxide may be given intranasally and without inhalation into the lungs to intubated, comatose individuals the tolerability of intranasal nitric oxide in awake humans has not previously been investigated. The inventors have tested the effect of nitric oxide in humans (normal volunteers) during intranasal delivery. […] Therefore it can easily be tolerated by awake, non-intubated patients.

[2] = CT perfusion scanning in intubated patients with cerebral ischemia treated with intranasal non-inhaled nitric oxide; format: in vivo, human
[3] = Cerebral blood flow by cortical laser Doppler during intranasal nitric oxide in intubated rodents; format: in vivo
Experimental: (§1) In intubated rodents, the inventors have shown that cerebral blood flow increases by 100% within 60 minutes of intranasal nitric oxide delivery.

[4] = Carotid artery occlusion model, Speckle laser Doppler, intubated rodents; format: in vivo
Experimental: as §1
Increase in cerebral blood flow is attributable to focal intranasal or intra-oral effect of nitric oxide rather than to systemic absorption of the gas. […] The effect on cerebral blood flow during intranasal delivery of nitric oxide with concomitant air inhalation into the lungs is therefore a focal effect on intranasal and intracranial vasculature attributable specifically to nitric oxide. […] In a non-intubated patient, nitric oxide inhalation can be prevented by occluding the nasal cavity anterior or posterior to the site of gas delivery. This is achieved by means of an anterior occlusion device such a rigid member, an expandable member, a compressible member, a sponge, a porous member, a plug, a balloon, foam and/or combinations of the foregoing, which prevent inhalation through the nostrils while maintaining a high concentration of nitric oxide in the nasal cavity. A non-intubated patient may be allowed to inhale air into the lungs during nitric oxide delivery into the nasal cavity by an optional central lumen with the distal orifice beyond the sites of nasal gas delivery and occlusion device.

[N]=O [nitric oxide]
tolerability of intranasal delivery without inhalation [1]: tolerated at high concentration
Cerebral Blood Flow, Changes in ACA Watershed ([2]; Post Rx): Normalization,
Mean Transit Time, Changes in ACA Watershed ([2]; Post Rx): Normalization
Mean Transit Time, Left Hemisphere (ischemic) ([2]; Post Rx): 6.0 s
Mean Transit Time, Right Hemisphere (normal) ([2]; Post Rx): 6.1 s
Cerebral Blood Flow, increase in perfusion on L (ACA Watershed) ([2]; Post Rx vs Pre Rx, left ischemic hemisphere): 67% increase in
cerebral perfusion, CT perfusion scanning ([2]; intubated patients / human with focal cerebral ischemia, before vs after treatment): improvement in cerebral perfusion; also recorded: augmentation of cerebral perfusion and normalization of regional perfusion abnormalities
cerebral blood flow change (FIG. 8) ([3]; cortical laser Doppler, during intranasal administration): doubling of cerebral blood flow
cerebral blood flow increase ([3]; within 60 minutes of intranasal delivery): 100%
perfusion in the ischemic hemisphere ([4]; during carotid occlusion and following ligature release): perfusion is improved in the ischemic hemisphere
cerebral ischemia (FIG. 9) ([4]; intubated rodents, Speckle laser Doppler tracing): reduction of cerebral ischemia
